pIC50: −log10 of the molar value.
Legend:
Type in all cases: biochemical
[1] = target: T1, latent core 20 S proteasome (Homo sapiens, UniProt P25787+P25789); experiment: Competition of compound 3 with tRpt6 peptide, ChT-L activity of latent core; settings: 2 μM tRpt6
T1 construct: purified from erythrocytes; purchased Enzo Life Sciences, Inc. (Farmingdale, N.Y.); host or cells: human erythrocytes
Description: According to the most recent model of the 26 S proteasome dynamic cycle, Rpt6 succeeds the Hb-Y—X containing anchor subunits Rpt5, Rpt3, and Rpt2 in docking into the α face pockets and promoting an intermediate conformation between latent and activated (open gate) proteasomes (Dong et al. ([…]) Nature 565(7737): 49-55). […] For comparison, no competition between tRpt5, expected to occupy the α5/α6 pocket, and compound 3 was detected.
Referring to FIG. 4, the C-terminal peptide derived from Rpt6 subunit compromises inhibition of the ChT-L activity of the latent core by the compound 3; however, only when added to the proteasome prior to the inhibitor. […] 1 μM compound 3 and 2 μM tRpt6 were tested. Mean±SD; n=3 to 6.

[2] = target: T2, 20 S human housekeeping proteasome (Homo sapiens, UniProt P25787+P25789); experiment: ChT-L peptidase activity of 20 S proteasome activated with Rpt5 peptide; settings: ChT-L, 20 S activated with Rpt5 peptide; for pIC50: Suc-LLVY-AMC substrate, read-out: IC50
T2 construct: purified from erythrocytes; purchased Enzo Life Sciences, Inc. (Farmingdale, N.Y.); host or cells: human erythrocytes
Procedure: (§1) Human housekeeping 20 S and 26 S and complexes purified from erythrocytes were purchased from Enzo Life Sciences, Inc. (Farmingdale, N.Y.). The 1 mg/ml stock 20 S proteasome was diluted to 0.2 mg/ml working solution in 50 mM Tris/HCl, pH 8 containing 20% glycerol (dilution buffer). For the 26 S proteasome stock, the dilution buffer was supplemented with 2 mM ATP, 1 mM MgCl2, and 1 mM DTT (dithiothreitol). The ChT-L peptidase activity was measured as arbitrary intensity units of fluorescence emitted by 7-amino-4-methylcoumarin (AMC) released from the canonical model peptide substrate succinyl-LeuLeuValTyr-methylcoumarin (SucLLVY-MCA; Bachem Bioscience Inc., Philadelphia, Pa.), used at concentration of 100 μM. Free AMC (Sigma-Aldrich, St. Louis, Mo.) was used as the standard. The Rpt5 C-terminal peptide was synthesized (standard solid-phase peptide chemistry) and purified to at least 98% purity by GenScript (Piscataway, N.J.). The Rpt5 peptide and the peptide substrate were dissolved in dimethylsulfoxide (DMSO) and such stock solutions were stored at −20° C. The total concentration of DMSO in final reaction mixtures never exceeded 3% (vol/vol).
The reaction was carried out in 96-well plates, in 100 μL of reaction mixture, for 1 hour at 37° C. In the case of 20 S proteasome, the reaction mixture consisted of 45 mM Tris/HCl, pH 8, 100 mM KCl with premixed 10 μM Rpt5 peptide and 100 μM Suc-LLVY-MCA, to which 200 ng (nearly […]) of proteasome and desired concentration of tested compounds in 1 μL of DMSO were added. To test the activity of 26 S proteasome under conditions challenging coordination of the three pairs of peptidase active centers, a mixture of three canonical substrates specific for the ChT-L (SucLLVY-MCA), trypsin-like (T-L; BocLRR-MCA) and caspase-like (Casp-L; Z-LLE-MCA) was used with each of the substrates at 33.3 μM (100 μM of the total substrate concentration). The reaction mixture in this case consisted of 50 mM Tris/HCl, pH 8, 20 mM NaCl, premixed with the substrates and 2 mM ATP, to which 200 ng (nearly 0.1 nmol) of the 26 S working solution and desired concentration of tested compounds in 0.5 μL of DMSO were added. The reaction rates were calculated from a linear segment of kinetic curves constructed from measurements in 1-minutes intervals (Fluoroskan Ascent plate reader; Thermo Fisher Scientific Inc., Waltham, Mass.). Reaction rates were calculated using a linear fit executed by Slope Analyzer and Enzyme Kinetics applications launched within Origin Pro 2017 (OriginLab). Specific activity of the control 20 S proteasome activated with the Rpt5 peptide was in the range of 1.4 to 2.3 nanomoles of AMC product released by 1 mg of 20 S per second (1.95±0.24; n=18). Specific activity of the control 26 S proteasome challenged with three substrates reached on average 0.28±0.06 nanomoles of AMC product released by 1 mg of the enzyme per second (n=6). For comparison, degradation of the canonical Suc-LLVY-MCA substrate by the control 26 S proteasome preceded with a rate in the range of 0.6-0.8 nanomoles of AMC released per mg of the enzyme per second. The data are presented as mean±SD or as a representative set from at least 3 independent experiments.
The compounds were evaluated using the 20 S human housekeeping proteasome. It was activated with the Rpt5 derived 10-residue peptide that contains the C-terminal HbYX (hydrophobic-Tyr-any AA) motif activating the proteasome in trans and to some extend mimic the activation by the 19 S regulatory particle (Osmulski and Gaczynska (2013) Molecular pharmacology 84: 104-113; Smith et al. (2006) J. Struct. Biol. 156: 72-83; Smith et al. (2007) Mol. Cell 27: 731-744). Proteolytic activity was monitored over time using a fluorogenic peptide substrate specific for the chymotrypsin-like active center (ChT-L, Suc-LLVY-AMC) in the presence of a concentration range of the inhibitors. […]

[3] = target: T3, 26 S proteasome (Homo sapiens, UniProt P25787+P25789); experiment: 26 S proteasome challenged with mixture of three substrates (surrogate proteinase assay); settings: mixture of ChT-L, T-L and Casp-L substrates, 33.3 μM each; read-out: IC50, 26 S proteasome with substrates for all three peptidases
T3 construct: purified from erythrocytes; purchased Enzo Life Sciences, Inc. (Farmingdale, N.Y.); host or cells: human erythrocytes
Procedure: as §1
The reaction was carried out in 96-well plates, in 100 μL of reaction mixture, for 1 hour at 37° C. In the case of 20 S proteasome, the reaction mixture consisted of 45 mM Tris/HCl, pH 8, 100 mM KCl with premixed 10 μM Rpt5 peptide and 100 μM Suc-LLVY-MCA, to which 200 ng (nearly […]) of proteasome and desired concentration of tested compounds in 1 μL of DMSO were added. […] The reaction rates were calculated from a linear segment of kinetic curves constructed from measurements in 1-minutes intervals (Fluoroskan Ascent plate reader; Thermo Fisher Scientific Inc., Waltham, Mass.). Reaction rates were calculated using a linear fit executed by Slope Analyzer and Enzyme Kinetics applications launched within Origin Pro 2017 (OriginLab). […]

effect of peptide alone on proteasome activity [1] | ChT-L inhibitory activity in words [2] | pIC50 [2] | pIC50 [3] | Compound
did not affect the proteasome activity |  |  |  | tRpt6: 10-residue peptide derived from C-terminal fragment of Rpt6 (KNMSIKKLWK) [reference compound]
 | inactive | < 4.30 |  | O=C(O)[C@@H]1CCCCN1C(=O)OCc1ccccc1 [Compound 11, 1-((benzyloxy)carbonyl) (S)-piperidine-2-carboxylic Acid]
 |  | 4.94 |  | COc1cc(CCCOC(=O)C2CCCCN2C(=O)OCc2ccccc2)cc(OC)c1OC (racemic) [Compound 2, 1-benzyl 2-(3-(3,4,5-trimethoxyphenyl)propyl)piperidine-1,2-dicarboxylate]
 |  | 5.18 |  | O=C(OCCCc1ccccc1)[C@@H]1CCCN1C(=O)OCc1ccccc1 [Compound 13, 1-benzyl 2-(3-phenylpropyl) (S)-pyrrolidine-1,2-dicarboxylate]
 | significantly reduced its activity | 4.70 |  | COc1cc(COC(=O)[C@@H]2CCCCN2C(=O)OCc2ccccc2)cc(OC)c1OC (stereo in doubt) [Compound 8, 1-benzyl 2-(3,4,5-trimethoxybenzyl) piperidine-1,2-dicarboxylate]
 | completely abrogated activity | < 4.30 |  | COC(=O)N1CCCC[C@H]1C(=O)OCCCc1cc(OC)c(OC)c(OC)c1 [Compound 5, 1-methyl 2-(3-(3,4,5-trimethoxyphenyl)propyl) (S)-piperidine-1,2-dicarboxylate]
 | decreased activity | 4.47 |  | O=C(OCc1ccccc1)[C@@H]1CCCN1C(=O)OCc1ccccc1 [Compound 15, Dibenzyl (S)-pyrrolidine-1,2-dicarboxylate]
 |  | 4.82 |  | COc1cc(CCCOC(=O)[C@@H]2CCCCN2C(=O)OCC(C)C)cc(OC)c1OC [Compound 4, 1-isobutyl 2-(3-(3,4,5-trimethoxyphenyl)propyl) (S)-piperidine-1,2-dicarboxylate]
 |  | 5.59 | < 4.22 | O=C(OCCCc1ccccc1)[C@@H]1CCCCN1C(=O)OCc1ccccc1 [Compound 9, 1-benzyl 2-(3-phenylpropyl) (S)-piperidine-1,2-dicarboxylate]
 | inactive | < 4.30 |  | CCCOC(=O)[C@@H]1CCCCN1C(=O)OCc1ccccc1 [Compound 10, 1-benzyl 2-propyl (S)-piperidine-1,2-dicarboxylate]
 | significantly reduced its activity | 4.70 |  | COc1cc(CCOC(=O)[C@@H]2CCCCN2C(=O)OCc2ccccc2)cc(OC)c1OC [Compound 7, 1-benzyl 2-(3,4,5-trimethoxyphenethyl) (S)-piperidine-1,2-dicarboxylate]
 |  | 4.83 |  | COc1cc(CCCOC(=O)[C@@H]2CCCN(C(=O)OCc3ccccc3)C2)cc(OC)c1OC [Compound 6, 1-benzyl 3-(3-(3,4,5-trimethoxyphenyl)propyl) (R)-piperidine-1,3-dicarboxylate]
 | decreased activity | 4.72 |  | O=C(OCCc1ccccc1)[C@@H]1CCCN1C(=O)OCc1ccccc1 [Compound 14, 1-benzyl 2-phenethyl (S)-pyrrolidine-1,2-dicarboxylate]
 | only had modest activity | 4.62 |  | COc1cc(CCCOC(=O)[C@@H]2CCCN2C(=O)OCc2ccccc2)cc(OC)c1OC [Compound 12, 1-benzyl 2-(3-(3,4,5-trimethoxyphenyl)propyl) (S)-pyrrolidine-1,2-dicarboxylate]

Reference: patent US11345659B2, “Pipecolic esters for inhibition of the proteasome” (THE BOARD OF REGENTS OF THE UNIVERSY OF TEXAS SYSTEM, priority 2018, dated 2022)
